# Values joined by “and” are separate entries in the source; they are usually repeats but may differ in a detail not shown here. Equal entries are not always repeated.
# Key:
# Assay type in all cases: in vivo, human
# [1] = test system: adults with histocytologically proven malignant pleural effusion; assay: Phase I/IIa trial of intrapleural LTA-T: dose escalation and toxicity
# Description: The study was a phase I/IIa toxicity/non-randomised “proof of concept” efficacy trial. The protocol included administration of an intrapleural saline control followed by seven days pleural fluid production measurement prior to the administration of LTA-T to allow the assessment of any side-effects from LTA-T administration, and both acute pleural fluid production changes and the frequency of long-term pleurodesis efficacy after intrapleural LTA-T (see FIG. 1).
# The subjects were adults (aged≧18) with histocytologically proven malignant pleural effusion requiring symptomatic treatment.
# (§1) After informed consent, an indwelling pleural catheter (PleurX, Denver, Colo.) was placed in the pleural effusion and the pleural space fully drained. Markers of toxicity (clinical symptoms, blood parameters, performance status) were recorded daily on the first 14 days of the study and at intervals thereafter (FIG. 1).
# After initial complete fluid drainage, 30 mls intra-pleural saline (saline control) was administered (day 1). The daily pleural fluid drainage was then recorded for seven days to quantify the rate of production of pleural fluid. On day seven, subjects received a single intra-pleural injection of LTA-T, according to the dosing schedule (table 1). The starting dose was 250 mcg. Patients remained in hospital for one night following LTA-T administration in a respiratory unit equipped for the care of acute respiratory failure to permit immediate adverse event monitoring.
# (§2) Patient symptoms, performance status, radiographic pleural fluid recurrence (chest radiograph), adverse events and the clinical need for further pleural fluid drainage was assessed on days 22, 43, 64, 85. Where further fluid drainage was required, the time from the administration of LTA-T to first drainage was recorded. Those with recurrent pleural fluid were offered sterile talc pleurodesis (as standard care). All patients were followed up to death.
# [2] = test system: adults with histocytologically proven malignant pleural effusion; assay: Alveolar to arterial gradient in the partial pressure of oxygen (arterial blood gases breathing air)
# Description: Arterial blood gases breathing air were taken on days 1 and 3 of the first week (pre and post control saline), and on days 7 and 9 (pre and post LTA-T) to identify any impaired gas exchange (which is a problem with talc pleurodesis). The efficiency of lung oxygen exchange was quantified from the change in the alveolar to arterial gradient for the partial pressure of oxygen calculated from these blood gas samples, using standard methods.
# (§3) Changes in continuous variables were compared to baseline using a paired t-test (SPSS version 12.0).
# [3] = test system: malignant pleural effusion; assay: Long-term pleural fluid control (pleurodesis success, need for late therapeutic drainage)
# Method: Over the next 7 days (days 7-14), daily pleural fluid volume drainage and pleural fluid cytology for malignant cells was performed unless pleural fluid flow ceased. On day 14, the intra-pleural catheter was flushed and closed (but left in situ) and not used again for the duration of the study unless recurrent pleural fluid caused breathlessness requiring treatment by fluid drainage.
# as §2
# Long-term pleural fluid control was assessed by noting which patients required late therapeutic (>500 mls) pleural fluid drainage from their indwelling catheter in association with symptoms (excluding the subject not capable of achieving pleurodesis due to trapped lung). […] Between day 14 (when the indwelling catheter was first locked closed) and 1 month, 3 further patients received one therapeutic fluid drainage (pleurodesis success from day 14 9/12 (75%)). In those patients receiving a dose >750 mcg of intrapleural LTA-T, 6/7 required no therapeutic drainage at 1 month (86% pleurodesis success rate).
# [4] = test system: adults with histocytologically proven malignant pleural effusion; assay: Peripheral blood white cell count change 24 hours after intrapleural administration; settings: 7 subjects receiving >750 mcg; p=0.016, paired t-test
# Method: FIG. 3 illustrates the change in peripheral white cell count 24 hours after administration of intrapleural saline control or LTA-T, in all patients (FIG. 3a) and patients receiving 750 mcg LTA-T or more (FIG. 3b). Individual results are shown and mean and SD data for each group.
# as §1, §3
substance,measurement,setting,value
lipoteichoic acid T [LTA-T],Toxicity at the therapeutic dose,[1]; 750-1500 mcg intrapleural,mild with no consistent side effect profile
same,Pain,[1]; dose of 750 mcg to 1000 mcg,almost no pain
same,Side effects,"[1]; individual patients, single intrapleural dose 250 mcg",mild fever and Nil and Mild chest pain 2 hours post administration
same,Side effects,"[1]; individual patients, single intrapleural dose 375 mcg",Nil (2×) and Mild headache and light headed 4 hours
same,Side effects,"[1]; individual patients, single intrapleural dose 750 mcg","Nil and Mild back pain on inspiration after LTA-T, and Nausea, vomiting and pyrexia for 3 days"
same,Side effects,"[1]; individual patients, single intrapleural dose 1500 mcg",Nil
same,Raised inflammatory markers (CRP),"[1]; patient 10, 750 mcg, post LTA-T administration",inflammatory markers (CRP > 285).
same,Side effects,"[1]; patient 14, single intrapleural dose 3000 mcg",systemic inflammatory reaction
same,"Blood parameter, performance status or respiratory status toxicities",[1]; whole trial,"No blood parameter, performance status or respiratory status toxicities were seen"
same,"Alveolar to arterial gradient for the partial pressure of oxygen, post LTA-T, mean (SD)","[2]; day 9, mean baseline (SD) 4.24 (2.92) kPa",4.88 (1.80) kPa
same,Blood oxygen levels,[2]; dose of 750 mcg to 1000 mcg,no evidence of depressed blood oxygen levels
same,Change in the alveolar to arterial gradient versus saline control,[2]; following LTA-T compared with saline control,similar
same,Pleurodesis success from day 14,"[3]; 9/12, day 14 to 1 month, where pleurodesis technically achievable",75%
same,Patients not requiring any further therapeutic pleural drainage beyond 1 month from trial entry,"[3]; 12/13 patients, trapped lung subject excluded",92%
same,Pleurodesis outcome,[3]; dose of 750 mcg to 1000 mcg,effective pleurodesis
same,Pleurodesis success rate (no therapeutic drainage at 1 month),"[3]; patients receiving >750 mcg intrapleural, 6/7",86%
same,"Difference in WCC change, LTA-T vs saline",[4],4.70 (3.77)

# From patent publication US8536139B2, “Compositions comprising lipoteichoic acid for use in treating pleural effusion or pneumothorax” (ISIS Innovation Limited, priority 2007, dated 2013)
